Biological target: Arachidonate 5-lipoxygenase (Cavia porcellus)
Assay: Inhibitory activity against 5-lipoxygenase in guinea pig leukocytes was determined

| IC50 [nM] | SMILES |
| --- | --- |
| 240 | COc1ccc2[nH]c(-c3cc(C)c(O)c(C)c3)c(C)c2c1 [TZI-41127] |
| 180 | Cc1ccnc(N2CCN(CCC3Cn4c(-c5cc(C)c(O)c(C)c5)c(C)c5cc(O)cc(c54)O3)CC2)c1 (configuration not stated) [5-(4-Hydroxy-3,5-dimethyl-phenyl)-6-methyl-2-{2-[4-(4-methyl-pyridin-2-yl)-piperazin-1-yl]-ethyl}-2,3-dihydro-[1,4]oxazino[2,3,4-hi]indol-8-ol] |

From BindingDB's records for doi:10.1016/S0960-894X(01)80395-4 (1994)
